What all share (type): cell-based
The test system of experiment [1] is E. coli TOP10. The experiment in a line: microbe, parasite or virus in culture. As to conditions: Escherichia coli, no MBL, TAN/XER fixed at 4 µg/mL, XER 8 µg/mL in MEM-XER, read-out: Minimal inhibitory concentration. The text has this: (§1) Genes encoding different acquired IMP-like enzymes suspected to be resistant to XER (blaIMP-6, blaIMP-7, blaIMP-10, blaIMP-14, blaIMP-26, blaIMP-34, and blaIMP-59) were amplified by PCR, and corresponding amplicons were cloned into plasmid pUCP24 and expressed in E. coli TOP10. The following recombinant E. coli strains producing IMP-1, IMP-4, IMP-19, and NDM-1 were used from a previous study ([16]). […] For that purpose, a list of primers was designed and provided as Table S1. […] The nomenclature used in this study was according to the BBL sequence numbering ([52]).
(§2) To assess the inhibitory potency of XER, susceptibility testing was performed by broth microdilution method, determining the minimal inhibitory concentrations (MICs) of different antibiotics or antibiotic plus β-lactamase inhibitor combinations, including cefepime (FEP), imipenem (IPM), meropenem (MEM), and their combinations with XER (FEP-XER, IPM-XER, and MEM-XER). All data obtained with XER-based combinations were compared with data with TAN-based combinations, FEP-TAN, IPM-TAN, and MEM-TAN ([16]). FEP was purchased from Sigma-Aldrich (Saint-Louis, USA), whereas MEM was from HuiChem (Shanghai, China). […] MICs were determined in triplicate in cation-adjusted Mueller-Hinton (MH) broth (Bio-Rad, Marnes-la-Coquette, France) according to the CLSI guidelines ([53]). The results were interpreted according to the decrease in MIC value for the same antibiotic or combination of the corresponding recombinant strain producing the MBL enzyme. […] In a recent phase I clinical evaluation, XER was combined with cefiderocol. However, as this latter β-lactam substrate is known to be poorly hydrolyzed by IMP enzymes, it was not considered for the evaluation of XER inhibitory activity in this study. Instead, carbapenems were used as a substrate to evaluate the β-lactamase IMP activity in the presence or absence of XER and TAN, as it was deemed more specific for the IMP carbapenemase activity.

Experiment [2] relates to Klebsiella pneumoniae SMART 1133. The experiment in a line: microbe, parasite or virus in culture. The settings on record: SMART1133, IMP-1, CTX-M-2, TAN/XER fixed at 4 µg/mL, XER 8 µg/mL in MEM-XER, read-out: Minimal inhibitory concentration. As for the experimental part:
(§3) Most isolates and their respective β-lactamase content were characterized by whole-genome sequencing.
as §2

Experiment [3] relates to Pseudomonas aeruginosa PA11. Put plainly: microbe, parasite or virus in culture. As to conditions: IMP-10, TAN/XER fixed at 4 µg/mL, XER 8 µg/mL in MEM-XER, read-out: Minimal inhibitory concentration. As for the experimental part:
as §3, §2

The subject of experiment [4] is Pseudomonas aeruginosa C7. Put plainly: microbe, parasite or virus in culture. The settings on record: IMP-7, TAN/XER fixed at 4 µg/mL, XER 8 µg/mL in MEM-XER, read-out: Minimal inhibitory concentration. How it is done:
as §3, §2

The test system of experiment [5] is Pseudomonas aeruginosa PA14. The experiment in a line: microbe, parasite or virus in culture. The settings on record: IMP-18, TAN/XER fixed at 4 µg/mL, XER 8 µg/mL in MEM-XER, read-out: Minimal inhibitory concentration. As for the experimental part:
as §3, §2

Experiment [6] has as its system Klebsiella pneumoniae SMART 882. The experiment in a line: microbe, parasite or virus in culture. The settings on record: for MIC: Klebsiella pneumoniae, SMART882, read-out: Minimal inhibitory concentration. How it is done:
as §3, §2

The test system of experiment [7] is Escherichia coli SMART 640. Put plainly: microbe, parasite or virus in culture. As to conditions: SMART640, IMP-14, CTX-M-27, OXA-10, TAN/XER fixed at 4 µg/mL, XER 8 µg/mL in MEM-XER, read-out: Minimal inhibitory concentration. As for the experimental part: as §3, §2
In experiment [8] the test system is Klebsiella pneumoniae SMART 1134. Put plainly: microbe, parasite or virus in culture. As to conditions: IMP-34, CTX-M-2, TAN/XER fixed at 4 µg/mL, XER 8 µg/mL in MEM-XER; for MIC: Klebsiella pneumoniae, SMART1134, read-out: Minimal inhibitory concentration. As for the experimental part:
as §3, §2

Experiment [9] deals with Escherichia coli AZ 1677. The experiment in a line: microbe, parasite or virus in culture. The settings on record: AZ1677, IMP-59, TEM-1, TAN/XER fixed at 4 µg/mL, XER 8 µg/mL in MEM-XER, read-out: Minimal inhibitory concentration. How it is done:
as §3, §2

Experiment [10] deals with Pseudomonas aeruginosa PA13. The experiment in a line: microbe, parasite or virus in culture. As to conditions: IMP-15, TAN/XER fixed at 4 µg/mL, XER 8 µg/mL in MEM-XER, read-out: Minimal inhibitory concentration. As for the experimental part: as §3, §2
Experiment [11] relates to Enterobacter hormaechei subsp. steigerwaltii SMART 1276. The experiment in a line: microbe, parasite or virus in culture. As to conditions: read-out: Minimal inhibitory concentration. How it is done:
as §3, §2

Experiment [12] concerns Escherichia coli SMART 1735. The experiment in a line: microbe, parasite or virus in culture. As to conditions: SMART1735, IMP-59, TEM-1, TAN/XER fixed at 4 µg/mL, XER 8 µg/mL in MEM-XER, read-out: Minimal inhibitory concentration. As for the experimental part:
as §3, §2

The test system of experiment [13] is E. coli IMP-10. Put plainly: MIC broth microdilution, recombinant E. coli. The settings on record: Escherichia coli, IMP10; IMP-1-like, V67F; TAN/XER fixed at 4 µg/mL, XER 8 µg/mL in MEM-XER; read-out: Minimal inhibitory concentration.
Description: as §1, §2
A general note: Dilution methods test growth across graded concentrations, often in twofold steps.

Experiment [14] concerns E. coli IMP-14 Mutant 2 (H174N). The experiment in a line: MIC broth microdilution, recombinant E. coli. As to conditions: Escherichia coli; IMP-14 H174N; TAN/XER fixed at 4 µg/mL, XER 8 µg/mL in MEM-XER; read-out: Minimal inhibitory concentration.
Description: as §1, §2

Experiment [15] concerns E. coli NDM-1. The experiment in a line: MIC broth microdilution, recombinant E. coli. The settings on record: Escherichia coli, NDM1; NDM-1-like; TAN/XER fixed at 4 µg/mL, XER 8 µg/mL in MEM-XER; read-out: Minimal inhibitory concentration.
Description: as §1, §2

The subject of experiment [16] is E. coli IMP-14 Mutant 4 (D227Y). Put plainly: MIC broth microdilution, recombinant E. coli. As to conditions: Escherichia coli; IMP-14 D227Y; TAN/XER fixed at 4 µg/mL, XER 8 µg/mL in MEM-XER; read-out: Minimal inhibitory concentration.
Description: as §1, §2

Experiment [17] concerns E. coli IMP-59. Put plainly: MIC broth microdilution, recombinant E. coli. The settings on record: Escherichia coli, IMP59; IMP-4 like, N233Y; TAN/XER fixed at 4 µg/mL, XER 8 µg/mL in MEM-XER; read-out: Minimal inhibitory concentration.
Description: as §1, §2

Consider `C[C@@H](O)[C@H]1C(=O)N2C(C(=O)O)=C(SCCN=CN)C[C@H]12` [IPM, imipenem], for which the MIC was not above 0.25 µg/mL in [1]; 128 µg/mL in experiment [2]; 256 µg/mL in experiment [3]; 128 µg/mL in experiment [4]; 128 µg/mL in experiment [5]; not above 0.25 µg/mL in experiment [6]. Also, the MIC is 0.5 µg/mL in [7]; 0.5 µg/mL in experiment [8]; not above 0.25 µg/mL in [9]; 256 µg/mL in experiment [10]; 0.5 µg/mL in experiment [11]; not above 0.25 µg/mL in experiment [12]. The MIC is 16 µg/mL in [13]; 2 µg/mL in [14]; 2 µg/mL in experiment [15]; 8 µg/mL in experiment [16]; 0.5 µg/mL in experiment [17].
For the molecule `CO/N=C(\C(=O)N[C@@H]1C(=O)N2C(C(=O)[O-])=C(C[N+]3(C)CCCC3)CS[C@H]12)c1csc(N)n1` [FEP, cefepime], the MIC in experiment [1] was not above 0.25 µg/mL; in experiment [2] it was more than 256 µg/mL; in experiment [3], more than 256 µg/mL; in experiment [4], more than 256 µg/mL; in [5], 256 µg/mL; in experiment [6], 256 µg/mL. Besides, the MIC in experiment [7] was 128 µg/mL; in experiment [8], 256 µg/mL; in experiment [9], 8 µg/mL; in experiment [10], 128 µg/mL; in [11], more than 256 µg/mL; in experiment [12] it was 8 µg/mL. Also, the MIC in experiment [13] came to 64 µg/mL; in experiment [14], 64 µg/mL; in experiment [15], 4 µg/mL; in experiment [16], 128 µg/mL; in [17] it was 8 µg/mL.
As to `C[C@@H](O)[C@H]1C(=O)N2C(C(=O)O)=C(S[C@@H]3CN[C@H](C(=O)N(C)C)C3)[C@H](C)[C@H]12` [MEM, meropenem], the MIC in experiment [1] was not above 0.25 µg/mL; in experiment [2] it was 64 µg/mL; in [3], more than 256 µg/mL; in [4], 256 µg/mL; in experiment [5], 32 µg/mL; in experiment [6], 4 µg/mL. Also, the MIC in experiment [7] stood at 4 µg/mL; in experiment [8], 16 µg/mL; in experiment [9] it was 0.5 µg/mL; in experiment [10], 64 µg/mL; in [11] it was 2 µg/mL; in experiment [12], 0.5 µg/mL. Besides, the MIC was determined as 64 µg/mL in experiment [13]; 4 µg/mL in [14]; 2 µg/mL in experiment [15]; 8 µg/mL in experiment [16]; 8 µg/mL in [17]. Moreover, the Minimal inhibitory concentration in [6] (IMP-26, CTX-M-15, OXA-1, TAN/XER fixed at 4 µg/mL, XER 8 µg/mL in MEM-XER) stood at 1 µg/mL; in experiment [8] it was 8 µg/mL.

For the origin of these results see PMC12217461 (Antimicrobial Agents and Chemotherapy, 2025).
